According to US20120004268A1, “INSECTICIDAL COMPOSITIONS COMPRISING CYCLIC CARBONYLAMIDINES” (BAYER CROPSCIENCE AG, priority 2010, published 2012):

Key:
Format in all cases: in vivo
Aphis gossypii = assay: Foliar application Aphis gossypii / cotton (spray test); conditions: spray on infested cotton plants, 6 days
Protocol: Foliar Application Aphis gossypii/Cotton
(§1) To produce a suitable active compound preparation, 1 part by weight of active compound is mixed with the stated amounts of solvent and emulsifier, and the concentrate is diluted with emulsifier-containing water to the desired concentration. For application with ammonium salts and penetrants (rapeseed oil methyl ester 500 EW), these ingredients are each added to the spray liquor in a concentration of 1000 ppm.
Cotton plants (Gossypium hirsutum) heavily infested by the cotton aphid (Aphis gossypii) are treated by spraying with the active compound preparation of the desired concentration. After 6 days, the kill in % is determined 100% means that all aphids have been killed; 0% means that no aphids have been killed.

Myzus persicae = assay: Foliar application Myzus persicae / bell peppers (spray test); conditions: spray on infested bell pepper plants, AMS and/or RME each 1000 ppm in spray liquor where named, 6 days
Protocol: Foliar Application Myzus persicae/Bell Peppers
as §1
Bell pepper plants (Capsicum annuum) heavily infested by the green peach aphid (Myzus persicae) are treated by spraying with the active compound preparation of the desired concentration. After 6 days, the kill in % is determined. 100% means that all aphids have been killed; 0% means that no aphids have been killed.

Bemisia tabaci = Bemisia tabaci (BEMITA spray treatment) on cotton leaf discs; conditions: 0.8 ppm active compound; spray on cotton leaf discs infested by whitefly larvae; 7 days
Protocol: Bemisia tabaci (BEMITA Spray Treatment)
To produce a suitable active compound preparation, 1 part by weight of active compound is mixed with the stated amounts of solvents and emulsifier, and the concentrate is diluted with emulsifier-containing water to the desired concentration.
Discs of cotton leaves (Gossypium hirsutum) infested by whitefly (Bemisia tabaci) larvae are sprayed with an active compound preparation of the desired concentration.
After 7 days, the effects in % is determined 100% means that all whiteflies have been killed; 0% means that none of the whiteflies have been killed.

[1] = 0.8 ppm active compound, AMS and/or RME each 1000 ppm in spray liquor where named

Row | SMILES | Kill in % after 6d (Aphis gossypii; [1]) [%] | Kill in % after 6d (Myzus persicae; 0.8 ppm active compound) [%] | Kill in % after 7d (Bemisia tabaci) [%] | Kill in % after 6d (Aphis gossypii; 4 ppm active compound, RME 1000 ppm in spray liquor where named) [%] | Kill in % after 6d (Myzus persicae; 4 ppm active compound) [%]
1 | CN(Cc1ccc(Cl)nc1)C1=NC(=O)OC1 [I-1, 4-[[(6-chloro-3-pyridinyl)methyl]methylamino]-2(5H)-oxazolone] | 35 | 0 |  |  | 
2 | O=C1N=C(N(Cc2ccc(Cl)nc2)C2CC2)CO1 [I-6, 4-[[(6-chloro-3-pyridinyl)methyl]cyclopropylamino]-2(5H)-oxazolone] | 0 |  | 40 | 40 | 15
